Data on 6 molecules can be found in paper PMC11945079, “Gadolinium Complex with Tris-Hydroxypyridinone as an Input for New Imaging Probes: Thermodynamic Stability, Molecular Modeling and Biodistribution” (Molecules, 2025).

SMILES strings stand for the structures. Where two headings read alike, the source gives them in different places.

For data set [1] the following is noted: cited from earlier work; for pGd: pH 7.4.
Data set [2] is described as follows: Literature Gd(III) complex stability constants and pGd of comparison ligands. The data set is classed as physicochemical. To be noted: pH = 7, CL = 10^−5 M, CL/CGd = 10, from constants in water.
The conditions of data set [3]: in water; cited from earlier work.
Data set [4] in a line: Potentiometric titration of the 1:1 Gd/L system: stability constants of the Gd(III) complexes, pGd, species distribution. The data set is classed as physicochemical. As for the experimental part:
(§1) All the studies were performed by potentiometric titrations of the ligand alone or in the presence of a 1:1 Gd/L stoichiometric ratio (Figure 1), which allowed for the determination of the protonation constants of KEMPPr(3,4-HP)3, as well as the stability constants of the formed Gd(III) complexes, from the best fitting of the experimental curves with the Hyperquad program (Table 1). Other Gd-to-ligand molar ratios were not considered in the present study, because it was admitted that species with a 1:2 stoichiometric ratio are present only at quite low concentrations for pH ca 7 [10].
Analysis of the potentiometric titration curves (Figure 1), namely those obtained for the Gd(III)/KEMPPr(3,4-HP)3 system under 1:1 (Gd/L) stoichiometry, evidences a change in the deprotonation profile of the ligand due to its coordination to Gd (III). Since some precipitation was detected above pH = 6, the corresponding experimental points were not used in the calculations to obtain the Gd (III) complexation model. The obtained Gd(III) complexation model presents some similarities to that previously found for H3L2 (see Table 1), firstly involving the formation of a bis-chelated GdH4L^4+ species, a GdH2L^2+ tetra-chelated complex, and afterwards the formation of a neutral hexa-coordinated GdL species. […] Concerning the Gd(III)/H3L2 system (in water, CL = CGd = 3.2 × 10^−4 M), the Gd(III) complexation also begins at pH ca 2, and the GdL species forms at pH ca 3.7 and becomes dominant at pH 4.5 [11]. For the Gd (III)/NTP (PrHP)3 system (in water), the GdL species is not involved in the proposed model.
(§2) The compound KEMPPr(3,4-HP)3 was synthesized according to the previously published procedure. The GdCl3 stock solution (9.8 × 10^−3 M) was prepared from the gadolinium salt in HCl 0.1 M medium to avoid hydrolysis, and standardized by inductively coupled plasma emission (ICP). The 0.1 M HCl solution used in the calibration of the glass electrode was obtained from a Titrisol ampoule (Merck, Darmstadt, Germany). The precise amount of HCl in the Gd(III) solution was determined by the standard-addition method using 0.1 M HCl (Titrisol). The titrant solution used in the potentiometric titrations was obtained from a carbonate-free 0.1 M KOH commercial ampoule (Titrisol) and standardized by titration with potassium hydrogen phthalate, and rejected whenever the percentage of carbonate (Gran’s method) was higher than 1% of the total amount of base. The potentiometric studies were performed with an automated potentiometric apparatus containing a Crison micropH 2002 millivoltimeter, a Crison microBu 2031 burette (Crison Instruments, Barcelona, Spain) and a Haake thermostatic bath (Haake Technik GmbH, Vreden, Germany, T = 25.0 ± 0.1 °C), controlled by the PASAT program. The glass and Ag/AgCl reference electrodes were previously conditioned in different DMSO/water mixtures of an increasing DMSO % composition (until 50%) and the response of the glass electrode was measured through the determination of the Nernst parameters by Gran’s method, obtained from strong acid–strong base (HCl/KOH) calibrations.
Potentiometric titrations of compound KEMPPr(3,4-HP)3, in the absence or presence of Gd(III), were performed in 50% (w/w) DMSO/water medium at an ionic strength (I) of 0.1 M KCl, T = 25.0 ± 0.1 °C, using 0.1 M KOH titrant. Each titration was repeated three times, for which the total volume was 20 mL, the total concentration of ligand (CL) was 3.2 × 10^−4 M and the Gd^3+/KEMPPr(3,4-HP)3 molar ratios were 0:1 and 1:1.
The stepwise protonation constants, Ki = [HiL]/[Hi−1L][H] of the ligand, and the global stability constants of the Gd(III) complex, β (GdmHhL) = [GdmHhLl]/[Gd]^m[H]^h[L]^l, were calculated by fitting the potentiometric data with the Hyperquad 2003 software. […]

Data set [5] in a line: Potentiometric titration of the ligand alone: protonation constants and species distribution. The class given is physicochemical. On the procedure:
as §1
as §2, with “calibrations. […]” for “calibrations.”
The stepwise protonation constants, Ki = [HiL]/[Hi−1L][H] of the ligand, and the global stability constants of the Gd(III) complex, β (GdmHhL) = [GdmHhLl]/[Gd]^m[H]^h[L]^l, were calculated by fitting the potentiometric data with the Hyperquad 2003 software. The gadolinium hydrolysis model and ionic product of water (Kw) were determined under the same experimental conditions (50% (w/w) DMSO/water medium, I = 0.1 M KCl, T = 25.0 ± 0.1 °C) and the values obtained for the stability constants (log β (GdH−2) = −15.17, log β (GdH−3) = −24.06) were included in the equilibrium model as well as the value of Kw (10^−14.95). […]

[6] abbreviates: in water, CL = CGd = 3.2 × 10^−4 M.
The mark [7] stands for this setting: 50% w/w DMSO/water, CL = 3.2 × 10^−4 M, 1:1.
[8] abbreviates: 50% w/w DMSO/water, T = 25.0 ± 0.1 °C, I = 0.1 M KCl.
[9] abbreviates: physiological pH (7.4), 50% (w/w) DMSO/water.

Turning to `O=C(O)CN(CCN(CC(=O)O)CC(=O)O)CCN(CC(=O)O)CC(=O)O` [DTPA, diethylenetriamine penta-acetic acid], in data set [1], the pGd is recorded as 19.1.

Consider `Cn1ccc(C(=O)NCCN(CCNC(=O)c2ccn(C)c(=O)c2O)CCNC(=O)c2ccn(C)c(=O)c2O)c(O)c1=O` [TREN-1-Me-3,2-HOPO], for which the “log KGdL (thermodynamic stability of the Gd(III) complex)” value in data set [1] is 19.2.

As for `Cc1c(O)c(=O)ccn1CCCNC(=O)CCN(CCC(=O)NCCCn1ccc(=O)c(O)c1C)CCC(=O)NCCCn1ccc(=O)c(O)c1C` [NTP(PrHP)3], in data set [1] (in water), the “log β (GdmHhLl), (m,h,l) = (1,1,1) (log KGdHL)” value is on record as 26.35; the “log β (GdmHhLl), (m,h,l) = (1,2,1)” value is 31.16; the “log β (GdmHhLl), (m,h,l) = (1,3,1)” value is reported as 35.69; the “log β (GdmHhLl), (m,h,l) = (1,3,2)” value was 52.3. Besides, in data set [1] (in water), the “log β (GdmHhLl), (m,h,l) = (1,4,1)” value is 39.46; the “log β (GdmHhLl), (m,h,l) = (1,5,1)” value is on record as 42.8; the “log β (GdmHhLl), (m,h,l) = (1,5,2)” value was 65.3. Further, the “pGd (−log [Gd(III)])” value in data set [2] was determined as 12.3.

`Cc1c(O)c(=O)ccn1CCCNC(=O)CCC(CCC(=O)NCCCn1ccc(=O)c(O)c1C)(CCC(=O)NCCCn1ccc(=O)c(O)c1C)[N+](=O)[O-]` [H3L2]: in data set [1] (setting [6]), the “pH at which Gd(III) complexation begins” value is on record as ~2, the “pH at which the GdL species becomes dominant” value is 4.5 and the “pH at which the GdL species forms” value is listed as ~3.7. Also, in data set [1] (in water), the “log β (GdmHhLl), (m,h,l) = (1,0,1) (log KGdL)” value was 21.22(5); the “log β (GdmHhLl), (m,h,l) = (1,2,1)” value is recorded as 30.03(6); the “log β (GdmHhLl), (m,h,l) = (1,4,1)” value was 37.74(4). In data set [1] (pH = 7, CL = 10^−5 M, CL/CGd = 10, in water), the “pGd (−log [Gd(III)])” value is recorded as 14.3. In addition, the “difference between log K4 and log K5” value in data set [3] is listed as 1.15.

For the molecule `Cc1c(O)c(=O)ccn1CCCNC(=O)C1(C)CC(C)(C(=O)NCCCn2ccc(=O)c(O)c2C)CC(C)(C(=O)NCCCn2ccc(=O)c(O)c2C)C1` (centres unmarked) [KEMPPr(3,4-HP)3], in data set [4] (setting [7]), the “pH at which Gd(III) complexation begins” value is on record as ~2, the “pH at which the GdL complex becomes prevalent” value came out at 4.8 and the “pH at which the neutral GdL complex begins to form” value is ~3.5. In data set [4] (setting [8]), the “log β (GdmHhLl), (m,h,l) = (1,0,1) (log β GdL)” value is recorded as 26.59(8); the “log β (GdmHhLl), (m,h,l) = (1,1,1)” value is 31.30(4); the “log β (GdmHhLl), (m,h,l) = (1,2,1)” value is 35.17(7); the “log β (GdmHhLl), (m,h,l) = (1,4,1)” value was 41.35(8). Moreover, the “log β (GdmHhLl), (m,h,l) = (1,0,1) (log β GdL)” value in data set [4] (50% w/w DMSO/water, T = 25.0 ± 0.1 °C, I = 0.1 M KCl, listed as H3L) amounted to 26.59. Besides, the “pGd (−log [Gd(III)])” value in data set [4] (pH = 6, CL = 10^−5 M, CL/CGd = 10, 50% w/w DMSO/water) is given as 13.2. In addition, the “difference between log K2 and log K3” value in data set [5] (50% w/w DMSO/water) stood at 1.1. For the same molecule, in data set [5] (setting [9]), the “composition of the solution: H3L species” value is 99.95% and the “composition of the solution: monocharged H4L^+ species” value is recorded as 0.05%. Further, the “pH range of predominance of the neutral H3L species” value in data set [5] (species distribution, CL = 3.2 × 10^−4 M, 50% (w/w) DMSO/water) was 3.4–9.9.

On to `O=C(O)CN1CCN(CC(=O)O)CCN(CC(=O)O)CCN(CC(=O)O)CC1` [DOTA, 1,4,7,10-tetraazacyclododecane N,N′,N″,N‴-tetra-acetic acid], for which, in data set [1], the pGd was 20.4.
